Patent US20140073631A1 (priority 2012, published 2014)
pIC50: −log10 of the molar value. In brackets after ≈: the same amount, converted by molar mass. Entries after “also recorded” stand apart in the source; their conditions may differ. Where two headings read alike, the source gives them in different places.

What was measured:
[1] = tested on: Burkholderia pseudomallei; assay: microbe, parasite or virus in culture; format: cell-based
[2] = tested on: uninfected J774 macrophages; settings: mouse
Yersinia pestis = assay: microbe, parasite or virus in culture; format: cell-based
Burkholderia mallei = assay: microbe, parasite or virus in culture; format: cell-based
[3] = tested on: Mtb H37Rv (SRI 1345), nonreplicating persistence; format: cell-based, Mycobacterium tuberculosis
Bacillus anthracis = assay: microbe, parasite or virus in culture; format: cell-based
several bacteria = format: cell-based
[4] = tested on: HIV-1 ROJO (low passage clinical strain); assay: PBMC assay, virus production by reverse transcriptase activity; format: cell-based; settings: PBMCs
HIV-1 = assay: CEM-SS microtiter antiviral XTT cytoprotection assay; format: cell-based
[5] = tested on: fresh human peripheral blood mononuclear cells
Mtb H37Rv (SRI 1345) [6] = assay: microbe, parasite or virus in culture; format: cell-based, Mycobacterium tuberculosis
Mtb H37Rv (SRI 1345) [7] = assay: microbe, parasite or virus in culture; format: cell-based, Mycobacterium tuberculosis; settings: for MIC: Mycobacterium tuberculosis, H37RV, 168 h, read-out: MIC H37Rv
Francisella tularensis = assay: microbe, parasite or virus in culture; format: cell-based
[8] = tested on: Mtb H37Rv (SRI 1345) in murine J774 cells; format: cell-based, Mycobacterium tuberculosis
Vero Cells = assay: Cytotoxicity Assay, CellTiter-Glo Luminescent Cell Viability Assay
Y. pestis C092 = format: in vivo, BALB/c mice
F. tularensis = assay: microbe, parasite or virus in culture; format: cell-based; settings: Francisella tularensis, read-out: MIC F. tularensis (Original Test)
Plasmodium falciparum = assay: Anti-malaria testing; format: cell-based
H37Rv Colorado strain [9] = assay: TB MIC Testing (Table 9); format: cell-based; settings: Mycobacterium tuberculosis, read-out: MIC Value, Standard Test Strain H27Rv
B. pseudomallei = assay: microbe, parasite or virus in culture; format: cell-based; settings: Burkholderia pseudomallei, read-out: MIC B. pseudomallei
F. tularensis SCHU S4 = tested on: F. tularensis SCHU S4; set-up: species or system BALB/c mice; settings: mouse, in vivo
Y. pestis = assay: microbe, parasite or virus in culture; format: cell-based; settings: Yersinia pestis, read-out: MIC Y. pestis
B. anthracis = assay: microbe, parasite or virus in culture; format: cell-based; settings: Bacillus anthracis, read-out: MIC B. anthracis
B. mallei = assay: microbe, parasite or virus in culture; format: cell-based; settings: Burkholderia mallei, read-out: MIC B. mallei
TB = assay: DMID TB MIC Results (Table 10); format: cell-based; settings: Mycobacterium tuberculosis; solvent DMSO
P. aeruginosa = assay: microbe, parasite or virus in culture; format: cell-based; settings: Pseudomonas aeruginosa, read-out: MIC P. aeruginosa
[10] = mouse, in vivo
E. coli = assay: microbe, parasite or virus in culture; format: cell-based; settings: Escherichia coli, read-out: MIC E. coli
H37Rv Colorado strain [11] = assay: MBC Determination with H37Rv Colorado strain (Table 9); format: cell-based; settings: Mycobacterium tuberculosis; Performed with H37Rv

N=C(NCCCCCCNC(=N)NC(=N)N1CCN(c2cc3c(cc2F)c(=O)c(C(=O)O)cn3C2CC2)CC1)NC(=N)N1CCN(c2cc3c(cc2F)c(=O)c(C(=O)O)cn3C2CC2)CC1 [BVS-10A]
MIC Range [1]: 4 to 64 µg/mL
isolates with MICs<16 μg/ml [1]: 30%
MIC50 ([1]; Burkholderia pseudomallei): 32 µg/mL (≈ 35 µM)
MIC90 ([1]; Burkholderia pseudomallei): 64 µg/mL (≈ 70.1 µM)
MTT % viability (high conc.) [2]: 73%
MTT % viability (low conc.) [2]: >100%
MTT % viability (mid conc.) [2]: 63%
% CELL VIABILITY (CEM-SS cells; 0.00032 nG/mL): 100%
% CELL VIABILITY (CEM-SS cells; 0.001 nG/mL): 100%
% CELL VIABILITY (CEM-SS cells; 0.0032 nG/mL): 100%
% CELL VIABILITY (CEM-SS cells; 0.01 nG/mL): 100%
% CELL VIABILITY (CEM-SS cells; 0.032 nG/mL): 100%
% CELL VIABILITY (CEM-SS cells; 0.1 nG/mL): 100%
% CELL VIABILITY (CEM-SS cells; 0.32 nG/mL): 100%
% CELL VIABILITY (CEM-SS cells; 1 nG/mL): 100%
% CELL VIABILITY (CEM-SS cells; 3.2 nG/mL): 100%
% CELL VIABILITY (CEM-SS cells; 10 nG/mL): 100%
% CELL VIABILITY (CEM-SS cells; 32 nG/mL): 100%
% CELL VIABILITY (CEM-SS cells; 100 nG/mL): 100%
TC 25% (CEM-SS cells; human): >100.00 UG/mL
TC 50% (CEM-SS cells; human): >100.00 UG/mL
TC 95% (CEM-SS cells; human): >100.00 UG/mL
MIC Range (Yersinia pestis): 0.125 to 0.5 µg/mL
MIC50 (Yersinia pestis; Yersinia pestis): 0.25 µg/mL (≈ 0.274 µM)
MIC Range (Burkholderia mallei): 0.25 to 8 µg/mL
MIC50 (Burkholderia mallei; Burkholderia mallei): 1 µg/mL (≈ 1.1 µM)
MIC90 (Burkholderia mallei; Burkholderia mallei): ≥ 4 µg/mL
LORA [3]: >6.25 µg/mL
MIC Range (Bacillus anthracis): 0.25 to 2 µg/mL
MIC50 (Bacillus anthracis; Bacillus anthracis): 0.5 µg/mL (≈ 0.548 µM)
minimum inhibitory concentrations (MIC), range over strains (several bacteria): <0.128 to 12.8 µg/mL
concentrations at which active [4]: greater than 3.2 μg/mL
% RED. IN VIRAL CPC (HIV-1; 0.00032 nG/mL): 3%
% RED. IN VIRAL CPC (HIV-1; 0.001 nG/mL): 4%
% RED. IN VIRAL CPC (HIV-1; 0.0032 nG/mL): 1%
% RED. IN VIRAL CPC (HIV-1; 0.01 nG/mL): 4%
% RED. IN VIRAL CPC (HIV-1; 0.032 nG/mL): 7%
% RED. IN VIRAL CPC (HIV-1; 0.1 nG/mL): 2%
% RED. IN VIRAL CPC (HIV-1; 0.32 nG/mL): 4%
% RED. IN VIRAL CPC (HIV-1; 1 nG/mL): 9%
% RED. IN VIRAL CPC (HIV-1; 3.2 nG/mL): 2%
% RED. IN VIRAL CPC (HIV-1; 10 nG/mL): 11%
% RED. IN VIRAL CPC (HIV-1; 32 nG/mL): 100%
% RED. IN VIRAL CPC (HIV-1; 100 nG/mL): 100%
TOXICITY VALUES (XTT) % CC ([5]; 0.01 μg/ml): 103.2%
TOXICITY VALUES (XTT) % CC ([5]; 0.032 μg/ml): 103.6%
TOXICITY VALUES (XTT) % CC ([5]; 0.1 μg/ml): 97.1%
TOXICITY VALUES (XTT) % CC ([5]; 0.32 μg/ml): 100.9%
TOXICITY VALUES (XTT) % CC ([5]; 1 μg/ml): 96.2%
TOXICITY VALUES (XTT) % CC ([5]; 3.2 μg/ml): 103.5%
TOXICITY VALUES (XTT) % CC ([5]; 10 μg/ml): 108.3%
TOXICITY VALUES (XTT) % CC ([5]; 32 μg/ml): 97.3%
toxicity in PBMCs ([5]; 100 μg/mL): Toxicity was detected
TOXICITY VALUES (XTT) % CC ([5]; 100 μg/ml): 51.2%
Colony Count (Mtb H37Rv (SRI 1345) [6]): TNTC
% inhibition at the MIC concentration (Mtb H37Rv (SRI 1345) [7]): 66%
MIC (Mtb H37Rv (SRI 1345) [7]): 6.25 µg/mL (≈ 6.85 µM)
MIC Range (Francisella tularensis): <0.03125 to 0.25 µg/mL
MIC50 (Francisella tularensis; Francisella tularensis): 0.0625 µg/mL (≈ 0.0685 µM)
Microphage log reduction (low conc.) [8]: 1.14
Microphage log reduction (mid conc.) [8]: 0.80

C[C@@H]1COc2c(N3CCN(C(=N)NC(=N)N4CCN(c5c(F)cc6c(=O)c(C(=O)O)cn7c6c5OC[C@@H]7C)CC4)CC3)c(F)cc3c(=O)c(C(=O)O)cn1c23 [BVS-76D (XVII)]
% Viability (Vero Cells; 0.01 μg/ml): 119%
% Viability (Vero Cells; 0.02 μg/ml): 105%
% Viability (Vero Cells; 5 μg/ml): 113%
% Viability (Vero Cells; 10 μg/ml): 100%
% Viability (Vero Cells; 20 μg/ml, vs […] DMSO controls): 96%
survival (Y. pestis C092; 21 days): 100%
protection of infected mice (Y. pestis C092; mouse, in vivo, 5 mg/kg/day): complete protection
MIC90 (Yersinia pestis; Yersinia pestis): < 4 µg/mL
MIC90 (Burkholderia mallei; Burkholderia mallei): < 4 µg/mL
MIC (F. tularensis): < 0.06 µg/mL
MIC90 (Bacillus anthracis; Bacillus anthracis): ≤ 0.25 µg/mL
pIC50 (Plasmodium falciparum; average of Test 1 and Test 2, read-out: Average IC50): 5.56
pIC50 (Plasmodium falciparum; read-out: IC50 Test 1): 5.40
pIC50 (Plasmodium falciparum; read-out: IC50 Test 2): 5.84
MIC (H37Rv Colorado strain [9]): 0.312 to 0.625 µg/mL (≈ 0.41 to 0.82 µM)
MIC (B. pseudomallei): 2 to 4 µg/mL (≈ 2.63 to 5.25 µM)
life span of the mice (average) (F. tularensis SCHU S4): 10 days
outcome by day 13 (F. tularensis SCHU S4): all the mice in test Groups 3, 4 and 5 were dead
protection of infected mice (F. tularensis SCHU S4): partial protection; also recorded: not significantly effective
MIC (Y. pestis): < 0.06 µg/mL
MIC (B. anthracis): < 0.06 µg/mL
MIC (B. mallei): 1 µg/mL (≈ 1.31 µM)
IC50 (TB): 1.1 µg/mL (≈ 1.44 µM)
IC90 (TB): 1.19 µg/mL (≈ 1.56 µM)
MIC (TB): 1.25 µg/mL (≈ 1.64 µM)
MIC (P. aeruginosa): 0.25 µg/mL (≈ 0.328 µM)
symptoms in treated animals incl. unchallenged toxicity group [10]: some inflammation in the urinary, vaginal and rectal areas
MIC90 (Francisella tularensis; Francisella tularensis): < 4 µg/mL
MIC (E. coli): < 0.06 µg/mL
MBC (H37Rv Colorado strain [11]): 0.625 µg/mL (≈ 0.82 µM)

CO[C@H]1/C=C/O[C@@]2(C)Oc3c(C)c(O)c4c(O)c(c(/C=N/N5CCN(C)CC5)c(O)c4c3C2=O)NC(=O)/C(C)=C\C=C\[C@H](C)[C@H](O)[C@@H](C)[C@@H](O)[C@@H](C)[C@H](OC(C)=O)[C@@H]1C [Rifampin, rifampin, reference compound]
MTT % viability (high conc.) [2]: 86%
MTT % viability (low conc.) [2]: 97%
MTT % viability (mid conc.) [2]: 96%
LORA [3]: 1.56 µg/mL
MIC (H37Rv Colorado strain [9]): 0.0031 µg/mL (≈ 0.00377 µM)
Colony Count (Mtb H37Rv (SRI 1345) [6]): 23 CFU
MBC (Mtb H37Rv (SRI 1345) [6]; Mycobacterium tuberculosis, H37RV): 3.12 µg/mL (≈ 3.8 µM)
% inhibition at the MIC concentration (Mtb H37Rv (SRI 1345) [7]): 81%
MIC (Mtb H37Rv (SRI 1345) [7]): 0.049 µg/mL (≈ 0.0595 µM)
MIC (TB): 0.006 µg/mL (≈ 0.00729 µM)
Microphage log reduction (high conc.) [8]: 2.00
Microphage log reduction (low conc.) [8]: 0.76
Microphage log reduction (mid conc.) [8]: 1.11
MBC (H37Rv Colorado strain [11]): 0.0063 µg/mL (≈ 0.00766 µM)
